# From US20220008419A1, “PHARMACEUTICAL COMPOSITION FOR TREATING DIFFUSE-TYPE GASTRIC CANCER” (KANAZAWA MEDICAL UNIVERSITY, priority 2018, published 2022)
# Legend:
# MKN45 = assay: In vitro cell growth inhibition (CCK-8), cMet gene-amplified gastric cancer cell line MKN45; format: cell-based, human; details: 72 hours
# Experimental: (§1) Five types of cell lines (NUGC4, GCIY, MKN7, GCR1 and MKN45) were subcultured in the RPMI 1640 culture medium containing 10% concentration of fetal bovine serum, 100 units/mL concentration of penicillin, and 100 units/mL concentration of antibiotic streptomycin, and used in the following experiments. The cells were periodically examined for the presence of mycoplasma infection by using MycoAlert Mycoplasma Detection Kit (Lonza). Cell growth was measured by using Cell Counting Kit-8 (CCK-8) (Dojin Kagaku Kenkyusho, Kumamoto, Japan) (Ishiyama M., et al., […], 44; 1299:1997). The cells were inoculated at a density of 5×10^4 cells/mL in a volume of 100 μL per well, and incubated at 37° C. for 24 hours in an incubator. Then, any one of three types of cell growth factors, amphiregulin (AP, 100 ng/mL, R&D Systems, Minneapolis, Minn.), heparin-binding EGF-like growth factor (HB-EGF), and hepatocyte growth factor (HGF, 50 ng/mL, R&D Systems), and any one of two types of the EGFR inhibitors, AZ5104 (0.001 to 10 μM) and AST1306 (0.001 to 10 μM)), were added to each well, and the cells were further incubated at 37° C. for 72 hours in an incubator. In addition, to the control wells, any one of the three types of cell growth factors was added, but not the EGFR inhibitor. […] Absorbance was measured at a wavelength of 450 nm by using a microplate reader (BIO-RAD Laboratories, Inc.). […]
# GCR-1 = assay: In vitro cell growth inhibition (CCK-8), non-diffuse gastric cancer cell line GCR-1; format: cell-based, human; details: HGF 50 ng/mL, 72 hours
# Experimental: as §1
# [1] = test system: normal human gastric fibroblasts; assay: In vitro growth inhibition test for fibroblasts (cell count); format: cell-based; details: HB-EGF 10 ng/mL, EGF receptor inhibitor 1 μM, 96 hours
# GCIY = assay: In vitro cell growth inhibition (CCK-8), diffuse gastric cancer cell line GCIY; format: cell-based, human; details: 72 hours; for HB-EGF-induced cell growth of GCIY / HGF-induced cell growth of GCIY / amphiregulin-induced cell growth of GCIY: inhibitor 0.001 to 10 μM; for HGF-induced cell growth of GCIY: HGF 50 ng/mL; for amphiregulin-induced cell growth of GCIY: amphiregulin 100 ng/mL; for baseline cell growth of GCIY: no growth factor added
# Experimental: (§2) Five types of cell lines (NUGC4, GCIY, MKN7, GCR1 and MKN45) were subcultured in the RPMI 1640 culture medium containing 10% concentration of fetal bovine serum, 100 units/mL concentration of penicillin, and 100 units/mL concentration of antibiotic streptomycin, and used in the following experiments. The cells were periodically examined for the presence of mycoplasma infection by using MycoAlert Mycoplasma Detection Kit (Lonza). Cell growth was measured by using Cell Counting Kit-8 (CCK-8) (Dojin Kagaku Kenkyusho, Kumamoto, Japan) (Ishiyama M., et al., […], 44; 1299:1997). The cells were inoculated at a density of 5×10^4 cells/mL in a volume of 100 μL per well, and incubated at 37° C. for 24 hours in an incubator. Then, any one of three types of cell growth factors, amphiregulin (AP, 100 ng/mL, R&D Systems, Minneapolis, Minn.), heparin-binding EGF-like growth factor (HB-EGF), and hepatocyte growth factor (HGF, 50 ng/mL, R&D Systems), and any one of two types of the EGFR inhibitors, AZ5104 (0.001 to 10 μM) and AST1306 (0.001 to 10 μM)), were added to each well, and the cells were further incubated at 37° C. for 72 hours in an incubator. In addition, to the control wells, any one of the three types of cell growth factors was added, but not the EGFR inhibitor. Further, 10 μL of a WST-8 solution was added to each well, and the cells were cultured at 37° C. for 4 hours. Absorbance was measured at a wavelength of 450 nm by using a microplate reader (BIO-RAD Laboratories, Inc.). All the experiments were performed in triplicate, that is, the same experiment was repeated three times.
# [2] = test system: ErbB2-overexpressing adenocarcinoma xenograft; details: Hua Xie et al.; cited from earlier work
# cancer patients = details: among 55 evaluable cancer patients, phase I; cited from earlier work
# [3] = test system: EGFR-overexpressing tumor xenograft; details: Hua Xie et al.; cited from earlier work
# ErbB2 (HER2) = ErbB2 (HER2) (Homo sapiens, UniProt P04626); details: reported in literature; cited from earlier work
# ErbB2 (HER2), sequence (P04626 23-1255): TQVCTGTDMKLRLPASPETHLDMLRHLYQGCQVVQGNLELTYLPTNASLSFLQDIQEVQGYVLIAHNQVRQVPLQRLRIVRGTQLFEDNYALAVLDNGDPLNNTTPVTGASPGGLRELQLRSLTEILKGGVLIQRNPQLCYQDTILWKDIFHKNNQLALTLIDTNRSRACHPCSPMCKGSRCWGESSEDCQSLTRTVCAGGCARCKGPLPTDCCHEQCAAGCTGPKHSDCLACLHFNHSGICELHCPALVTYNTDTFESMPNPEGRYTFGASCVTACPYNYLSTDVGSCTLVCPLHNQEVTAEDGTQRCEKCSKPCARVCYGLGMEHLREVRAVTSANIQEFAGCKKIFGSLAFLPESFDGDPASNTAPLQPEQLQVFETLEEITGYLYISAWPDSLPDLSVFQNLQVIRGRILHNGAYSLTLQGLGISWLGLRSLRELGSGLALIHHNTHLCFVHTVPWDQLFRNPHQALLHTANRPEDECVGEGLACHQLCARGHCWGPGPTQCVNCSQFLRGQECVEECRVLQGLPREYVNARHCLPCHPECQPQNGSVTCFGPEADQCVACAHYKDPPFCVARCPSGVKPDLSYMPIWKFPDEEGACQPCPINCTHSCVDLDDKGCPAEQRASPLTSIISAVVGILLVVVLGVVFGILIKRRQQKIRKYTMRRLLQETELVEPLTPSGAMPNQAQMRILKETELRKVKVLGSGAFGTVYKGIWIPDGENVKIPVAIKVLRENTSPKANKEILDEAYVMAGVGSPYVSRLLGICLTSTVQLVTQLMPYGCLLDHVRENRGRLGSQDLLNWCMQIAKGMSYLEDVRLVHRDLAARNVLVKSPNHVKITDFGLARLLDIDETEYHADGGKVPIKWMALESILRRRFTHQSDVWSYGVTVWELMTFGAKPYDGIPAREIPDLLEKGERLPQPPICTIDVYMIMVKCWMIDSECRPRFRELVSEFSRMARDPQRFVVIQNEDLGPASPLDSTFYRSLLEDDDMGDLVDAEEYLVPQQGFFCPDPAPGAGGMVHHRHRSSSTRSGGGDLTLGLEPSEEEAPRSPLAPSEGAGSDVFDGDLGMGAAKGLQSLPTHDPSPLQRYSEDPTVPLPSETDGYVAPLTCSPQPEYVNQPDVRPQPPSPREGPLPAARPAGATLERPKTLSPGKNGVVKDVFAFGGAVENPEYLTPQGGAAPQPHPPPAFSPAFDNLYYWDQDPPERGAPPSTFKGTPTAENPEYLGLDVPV
# EGFR (ErbB1) = EGFR (ErbB1) (Homo sapiens, UniProt P00533); details: reported in literature; cited from earlier work
# EGFR (ErbB1), sequence (P00533 25-1210): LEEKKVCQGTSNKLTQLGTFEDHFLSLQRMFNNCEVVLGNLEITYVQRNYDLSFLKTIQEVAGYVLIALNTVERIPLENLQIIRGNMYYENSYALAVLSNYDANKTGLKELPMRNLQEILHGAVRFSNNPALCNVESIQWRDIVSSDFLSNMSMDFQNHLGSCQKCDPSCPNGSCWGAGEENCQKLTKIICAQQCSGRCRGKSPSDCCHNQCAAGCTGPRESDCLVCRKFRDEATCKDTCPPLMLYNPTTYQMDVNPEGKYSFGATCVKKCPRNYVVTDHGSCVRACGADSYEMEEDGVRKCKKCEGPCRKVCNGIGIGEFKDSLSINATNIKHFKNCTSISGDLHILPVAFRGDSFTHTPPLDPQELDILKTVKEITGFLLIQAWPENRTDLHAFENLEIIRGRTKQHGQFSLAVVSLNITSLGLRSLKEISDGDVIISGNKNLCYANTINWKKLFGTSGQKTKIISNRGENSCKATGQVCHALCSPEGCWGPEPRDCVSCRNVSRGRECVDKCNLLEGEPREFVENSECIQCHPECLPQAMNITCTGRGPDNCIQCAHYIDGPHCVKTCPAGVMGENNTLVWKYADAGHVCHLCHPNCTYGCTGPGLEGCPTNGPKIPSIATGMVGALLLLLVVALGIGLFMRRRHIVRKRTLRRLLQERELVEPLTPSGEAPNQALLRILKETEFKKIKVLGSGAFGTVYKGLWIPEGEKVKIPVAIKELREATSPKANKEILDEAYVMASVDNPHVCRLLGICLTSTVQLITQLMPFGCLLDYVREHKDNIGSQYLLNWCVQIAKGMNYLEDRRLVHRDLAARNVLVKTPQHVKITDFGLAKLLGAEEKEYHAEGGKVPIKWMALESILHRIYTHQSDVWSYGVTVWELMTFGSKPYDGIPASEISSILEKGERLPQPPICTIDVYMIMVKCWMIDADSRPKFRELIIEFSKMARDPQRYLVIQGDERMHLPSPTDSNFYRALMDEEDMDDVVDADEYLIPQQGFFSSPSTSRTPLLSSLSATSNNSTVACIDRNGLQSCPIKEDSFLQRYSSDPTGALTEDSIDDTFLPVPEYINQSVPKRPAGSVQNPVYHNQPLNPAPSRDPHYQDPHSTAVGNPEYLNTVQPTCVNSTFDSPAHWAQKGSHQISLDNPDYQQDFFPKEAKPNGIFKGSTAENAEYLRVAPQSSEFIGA
# NUGC4 = assay: In vitro cell growth inhibition (CCK-8), diffuse gastric cancer cell line NUGC4; format: cell-based, human; details: inhibitor 0.001 to 10 μM, 72 hours; for HGF-induced cell growth of NUGC4: HGF 50 ng/mL; for amphiregulin-induced cell growth of NUGC4: amphiregulin 100 ng/mL
# Experimental: as §2
# [4] = test system: FVB-2/Nneu transgenic breast cancer; details: Hua Xie et al.; cited from earlier work
# ErbB4 (HER4) = ErbB4 (HER4) (Homo sapiens, UniProt Q15303); details: reported in literature; cited from earlier work
# ErbB4 (HER4), sequence (Q15303 26-1308): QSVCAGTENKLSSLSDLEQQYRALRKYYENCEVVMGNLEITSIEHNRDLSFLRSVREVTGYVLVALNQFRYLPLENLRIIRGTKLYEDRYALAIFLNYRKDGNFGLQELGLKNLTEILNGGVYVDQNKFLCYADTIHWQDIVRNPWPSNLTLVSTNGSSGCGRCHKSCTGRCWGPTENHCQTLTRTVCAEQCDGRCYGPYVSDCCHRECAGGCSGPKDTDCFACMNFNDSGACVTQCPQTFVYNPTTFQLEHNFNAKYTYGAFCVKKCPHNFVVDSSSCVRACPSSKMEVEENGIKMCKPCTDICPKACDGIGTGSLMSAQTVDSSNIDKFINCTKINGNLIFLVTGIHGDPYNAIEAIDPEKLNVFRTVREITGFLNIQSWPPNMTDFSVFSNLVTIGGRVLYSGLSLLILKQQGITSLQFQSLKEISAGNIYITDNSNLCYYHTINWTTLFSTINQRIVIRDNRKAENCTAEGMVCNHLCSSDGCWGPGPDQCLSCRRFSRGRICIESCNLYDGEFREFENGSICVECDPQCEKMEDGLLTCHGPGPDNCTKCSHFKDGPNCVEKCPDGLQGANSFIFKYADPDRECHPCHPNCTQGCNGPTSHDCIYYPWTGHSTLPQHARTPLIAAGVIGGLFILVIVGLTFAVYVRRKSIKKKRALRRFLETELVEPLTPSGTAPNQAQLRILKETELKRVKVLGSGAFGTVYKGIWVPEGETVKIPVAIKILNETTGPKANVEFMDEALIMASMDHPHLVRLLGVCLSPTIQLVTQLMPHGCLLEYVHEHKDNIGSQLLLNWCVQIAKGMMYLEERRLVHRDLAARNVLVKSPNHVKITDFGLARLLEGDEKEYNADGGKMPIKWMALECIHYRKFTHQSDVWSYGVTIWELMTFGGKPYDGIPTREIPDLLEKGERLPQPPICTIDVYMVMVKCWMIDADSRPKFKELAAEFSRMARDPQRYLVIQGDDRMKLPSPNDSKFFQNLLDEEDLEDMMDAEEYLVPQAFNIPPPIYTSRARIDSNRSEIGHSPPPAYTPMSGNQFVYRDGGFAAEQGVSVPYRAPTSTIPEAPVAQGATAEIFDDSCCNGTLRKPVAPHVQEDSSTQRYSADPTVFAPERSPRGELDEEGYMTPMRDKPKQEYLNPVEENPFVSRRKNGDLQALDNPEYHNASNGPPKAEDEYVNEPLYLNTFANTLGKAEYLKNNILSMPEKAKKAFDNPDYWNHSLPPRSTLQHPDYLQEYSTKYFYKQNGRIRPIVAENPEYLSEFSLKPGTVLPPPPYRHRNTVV
# MKN7 = assay: In vitro cell growth inhibition (CCK-8), non-diffuse gastric cancer cell line MKN7; format: cell-based, human; details: HGF 50 ng/mL, 72 hours
# Experimental: as §1
# [5] = test system: ErbB2-overexpressing cells; details: Hua Xie et al.; cited from earlier work
# [6] = test system: non-small cell lung cancer with EGFR EX20Ins mutation; details: Floc'h et al.; cited from earlier work
# [7] = test system: Diffuse gastric cancer cells (NUGC4 cells); assay: In vivo test: survival of mice intraperitoneally transplanted with NUGC4 cells; design: species or system Balb/c nu/nu mice; details: for mice alive 11 weeks after the gastric cancer cell transplantation / mice alive seven weeks after the gastric cancer cell transplantation: eight mice per therapy, treatment from day 21, AZ5104/osimertinib 10 mg/kg once a day oral, savolitinib 2.5 mg/kg once a day oral, antibody 40 mg/kg twice a week intraperitoneal; for t-test for numbers of mice alive 11 weeks after transplantation compared with the control group: p<0.05
# Experimental: The anti-VEGF receptor 2 antibody used was anti-mouse VEGF receptor 2 antibody DC101 (GeneTex).
# Diffuse gastric cancer cells (NUGC4 cells) were transplanted to Balb/c nu/nu mice (6 weeks old) by intraperitoneal administration of 2×10^6 of the cells in 200 μL of phosphate buffered saline (PBS) per mouse. On day 21 after the transplantation, ascites accumulation was confirmed, and treatment was started. The treatment was performed with the following eight kinds of therapies, and eight mice were used for each therapy.
# For the control group (vehicle control), only a solution not dissolving any drug was administered once a week. The administration was continued for 4 weeks, and then for another 4 weeks.
# mutant EGFR = details: reported in literature; cited from earlier work
smiles,measurement,setting,value
"C=CC(=O)Nc1ccc2ncnc(Nc3ccc(OCc4cccc(F)c4)c(Cl)c3)c2c1.Cc1ccc(S(=O)(=O)O)cc1 [AST1306, 2-propenamide, N-[4-[[3-chloro-4-[(3-fluorophenyl)methoxy]phenyl]amino]-6-quinazolinyl]-, 4-methylbenzenesulfonate (1:1)]",concentration at which cell growth of MKN45 was inhibited,MKN45,≥ 1 µM
same,concentration at which HGF-induced cell growth of GCR-1 was inhibited,GCR-1,≥ 0.3 µM
same,HB-EGF-induced cell growth of normal human gastric fibroblasts,[1],inhibited
same,HB-EGF-induced cell growth of GCIY,GCIY,inhibited
same,HGF-induced cell growth of GCIY,GCIY,inhibited
same,amphiregulin-induced cell growth of GCIY,GCIY,inhibited
same,baseline cell growth of GCIY,GCIY,inhibited
same,tumor growth in ErbB2-overexpressing adenocarcinoma xenografted mice,[2],potently inhibited
same,partial remission,cancer patients,7 patients
same,stability (stability over 6 months or longer),cancer patients,7 patients
same,tumor growth in EGFR-overexpressing tumor xenografted mice,[3],weakly inhibited
same,inhibition of ErbB2 (HER2),ErbB2 (HER2),irreversible inhibitor
same,inhibition of EGFR (ErbB1),EGFR (ErbB1),irreversible inhibitor
same,HB-EGF-induced cell growth of NUGC4,NUGC4,inhibited
same,HGF-induced cell growth of NUGC4,NUGC4,inhibited
same,amphiregulin-induced cell growth of NUGC4,NUGC4,inhibited
same,tumor growth in FVB-2/Nneu transgenic breast cancer mice,[4],potently inhibited
same,inhibition of ErbB4 (HER4),ErbB4 (HER4),irreversible inhibitor
same,concentration at which HGF-induced cell growth of MKN7 was inhibited,MKN7,≥ 0.3 µM
same,growth inhibitory effect in ErbB2-overexpressing cells,[5],more potent
"CCN1CCN(Cc2ccc(-c3cc4c(N[C@H](C)c5ccccc5)ncnc4[nH]3)cc2)CC1 [AEE788, (R)-6-(4-((4-ethylpiperazin-1-yl)methyl)phenyl)-N-(1-phenylethyl)-7H-pyrrolo[2,3-d]pyrimidin-4-amine]",inhibition of ErbB2 (HER2),ErbB2 (HER2),inhibit
same,inhibition of EGFR (ErbB1),EGFR (ErbB1),inhibit
same,inhibition of ErbB4 (HER4),ErbB4 (HER4),inhibit
"C=CC(=O)Nc1cc(Nc2nccc(-c3c[nH]c4ccccc34)n2)c(OC)cc1N(C)CCN(C)C [AZ5104, N-(5-(4-(1H-indol-3-yl)pyrimidin-2-ylamino)-2-((2-(dimethylamino)ethyl)(methyl)amino)-4-methoxyphenyl)acrylamide]",concentration at which cell growth of MKN45 was inhibited,MKN45,≥ 1 µM
same,tumor growth in mice transplanted with non-small cell lung cancer with EGFR EX20Ins mutation,[6],inhibit
same,concentration at which HGF-induced cell growth of GCR-1 was inhibited,GCR-1,≥ 0.3 µM
same,mice alive 11 weeks after the gastric cancer cell transplantation,[7],all died
same,mice alive seven weeks after the gastric cancer cell transplantation,[7],one
same,t-test for numbers of mice alive 11 weeks after transplantation compared with the control group,[7],significant differences
same,HB-EGF-induced cell growth of normal human gastric fibroblasts,[1],inhibited
same,HB-EGF-induced cell growth of GCIY,GCIY,inhibited
same,HGF-induced cell growth of GCIY,GCIY,inhibited
same,amphiregulin-induced cell growth of GCIY,GCIY,inhibited
same,baseline cell growth of GCIY,GCIY,inhibited
same,inhibitory activity against mutant EGFR,mutant EGFR,inhibitory activity
same,inhibition of ErbB2 (HER2),ErbB2 (HER2),inhibitory activities
same,inhibition of EGFR (ErbB1),EGFR (ErbB1),inhibitory activities
same,HB-EGF-induced cell growth of NUGC4,NUGC4,inhibited
same,HGF-induced cell growth of NUGC4,NUGC4,inhibited
same,amphiregulin-induced cell growth of NUGC4,NUGC4,inhibited
same,inhibition of ErbB4 (HER4),ErbB4 (HER4),inhibitory activities
same,concentration at which HGF-induced cell growth of MKN7 was inhibited,MKN7,≥ 0.3 µM
COc1cc2ncnc(Nc3ccc(F)c(Cl)c3)c2cc1NC(=O)/C=C/CN1CCCCC1 [dacomitinib],inhibition of ErbB2 (HER2),ErbB2 (HER2),inhibit
same,inhibition of EGFR (ErbB1),EGFR (ErbB1),inhibit
same,inhibition of ErbB4 (HER4),ErbB4 (HER4),inhibit
CS(=O)(=O)CCNCc1ccc(-c2ccc3ncnc(Nc4ccc(OCc5cccc(F)c5)c(Cl)c4)c3c2)o1 [lapatinib],inhibition of ErbB2 (HER2),ErbB2 (HER2),inhibit
same,inhibition of ErbB4 (HER4),ErbB4 (HER4),inhibit
"C=CC(=O)Nc1cc(Nc2nccc(-c3cn(C)c4ccccc34)n2)c(OC)cc1N(C)CCN(C)C [osimertinib, 2-propenamide, N-[2-[[2-(dimethylamino)ethyl]methylamino]-4-methoxy-5-[[4-(1-methyl-1H-indol-3-yl)-2-pyrimidinyl]amino]phenyl]-]",tumor growth in mice transplanted with non-small cell lung cancer with EGFR EX20Ins mutation,[6],inhibit
same,mice alive 11 weeks after the gastric cancer cell transplantation,[7],2 mice
same,t-test for numbers of mice alive 11 weeks after transplantation compared with the control group,[7],significant differences
same,inhibitory activity against mutant EGFR,mutant EGFR,inhibitory activity
same,inhibition of ErbB2 (HER2),ErbB2 (HER2),inhibitory activities
same,inhibition of ErbB4 (HER4),ErbB4 (HER4),inhibitory activities
"CC(C)(O)CC(=O)NCCn1ccc2ncnc(Nc3ccc(Oc4cccc(C(F)(F)F)c4)c(Cl)c3)c21 [TAK-285, N-(2-(4-(3-chloro-4-(3-(trifluoromethyl)phenoxy)phenylamino)-5H-pyrrolo[3,2-d]pyrimidin-5-yl)ethyl)-3-hydroxy-3-methylbutanamide]",inhibition of ErbB2 (HER2),ErbB2 (HER2),inhibit
same,inhibition of ErbB4 (HER4),ErbB4 (HER4),inhibit
"Cc1c(NC(=O)OC[C@@H]2COCCN2)cn2ncnc(Nc3ccc4c(cnn4Cc4cccc(F)c4)c3)c12 [AC480, (S)-morpholin-3-ylmethyl 4-(1-(3-fluorobenzyl)-1H-indazol-5-ylamino)-5-methylpyrrolo[1,2-f][1,2,4]triazine-6-carbamate]",inhibition of ErbB2 (HER2),ErbB2 (HER2),inhibit
same,inhibition of EGFR (ErbB1),EGFR (ErbB1),inhibit
same,inhibition of ErbB4 (HER4),ErbB4 (HER4),inhibit
C[C@@H](c1ccc2nccn2c1)n1nnc2ncc(-c3cnn(C)c3)nc21 [savolitinib],mice alive 11 weeks after the gastric cancer cell transplantation,[7],all died
same,mice alive seven weeks after the gastric cancer cell transplantation,[7],2 mice
same,t-test for numbers of mice alive 11 weeks after transplantation compared with the control group,[7],no significant difference
"C=CC(=O)N1CCC(Oc2cc3c(Nc4ccc(Cl)c(Cl)c4F)ncnc3cc2OC)CC1 [poziotinib, 1-(4-(4-(3,4-dichloro-2-fluorophenylamino)-7-methoxyquinazolin-6-yloxy)piperidin-1-yl)prop-2-en-1-one]",inhibition of ErbB2 (HER2),ErbB2 (HER2),inhibit
same,inhibition of EGFR (ErbB1),EGFR (ErbB1),inhibit
same,inhibition of ErbB4 (HER4),ErbB4 (HER4),inhibit
